Test results reported in patent US6737383B1, “Herbicidal oxadiazolidines” (priority 1999, dated 2004).

What was measured:
wild oat = experiment: Test B pre/postemergence wild oat; assay type: in vivo, Avena fatua; details: for Plant response rating, Wild oats: Postemergence
Procedure, shortened: (§1)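 Response is a visual 0-to-10 score relative to untreated plants, where 0 means no effect and 10 means complete control, taken twelve to sixteen days after application. Treatments went onto soil at planting and onto foliage of 1- to 4-leaf plants, using a surfactant-containing non-phytotoxic solvent.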

surinam grass = experiment: Test B pre/postemergence surinam grass; assay type: in vivo, Brachiaria decumbens
Text: (§2) Seeds of bedstraw (Galium aparine), blackgrass (Alopecurus myosuroides), surinam grass (Brachiaria decumbens), cocklebur (Xanthium strumarium), corn (Zea mays), crabgrass (Digitaria sanguinalis), giant foxtail (Setaria faberii), morningglory (Ipomoea hederacea), pigweed (Amaranthus retroflexus), rape (Brassica napus), soybean (Glycine max), sugar beet (Beta vulgaris), velvetleaf (Abutilon theophrasti), wheat (Triticum aestivum), wild oat (Avena fatua) and purple nutsedge (Cyperus rotundus) tubers were planted and treated preemnergence with test chemicals formulated in a non-phytotoxic solvent mixture which included a surfactant.
(§3) At the same time, these crop and weed species were also treated with postemergence applications of test chemicals formulated in the same manner. Plants ranged in height from 2 to 18 cm (1- to 4-leaf stage) for postemergence treatments. Plant species in the flood test consisted of rice (Oryza sativa), smallflower flatsedge (Cyperus difformis), duck salad (Heteranthera limosa) and bamyardgrass (Echinochloa crus-galli) grown to the 2-leaf stage for testing. Treated plants and controls were maintained in a greenhouse for twelve to sixteen days, after which all species were compared to controls and visually evaluated. Plant response ratings, summarized in Table B, are based on a scale of 0 to 10 where 0 is no effect and 10 is complete control. A dash (−) response means no test result.

wheat = experiment: Test B pre/postemergence wheat; assay type: in vivo, Triticum aestivum; details: for Plant response rating, Wheat: Postemergence
Text: as §2, §3

morningglory = experiment: Test B pre/postemergence morningglory; assay type: in vivo, Ipomoea hederacea
Text: as §2, §3

blackgrass = experiment: Test B pre/postemergence blackgrass; assay type: in vivo, Alopecurus myosuroides
Text: as §2, §3

bedstraw = experiment: Test B pre/postemergence bedstraw; assay type: in vivo, Galium aparine; details: Preemergence
Procedure, shortened: as §1

velvetleaf = experiment: Test B pre/postemergence velvetleaf; assay type: in vivo, Abutilon theophrasti; details: for Plant response rating, Velvetleaf: Postemergence
Text: as §2, §3

giant foxtail = experiment: Test B pre/postemergence giant foxtail; assay type: in vivo, Setaria faberii
Text: as §2, §3

soybean = experiment: Test B pre/postemergence soybean; assay type: in vivo, Glycine max; details: for Plant response rating, Soybean: Postemergence
Text: as §2, §3

rape = experiment: Test B pre/postemergence rape; assay type: in vivo, Brassica napus
Text: as §2, §3

cocklebur = experiment: Test B pre/postemergence cocklebur; assay type: in vivo, Xanthium strumarium
Text: as §2, §3

sugar beet = experiment: Test B pre/postemergence sugar beet; assay type: in vivo, Beta vulgaris
Text: as §2, §3

crabgrass = experiment: Test B pre/postemergence crabgrass; assay type: in vivo, Digitaria sanguinalis
Text: as §2, §3

corn = experiment: Test B pre/postemergence corn; assay type: in vivo, Zea mays
Text: as §2, §3

pigweed = experiment: Test B pre/postemergence pigweed; assay type: in vivo, Amaranthus retroflexus; details: for Plant response rating, Redroot pigweed: Postemergence
Text: as §2, §3

purple nutsedge = experiment: Test B pre/postemergence purple nutsedge; assay type: in vivo, Cyperus rotundus
Procedure, shortened: as §1

[1] = Rate 500 g/ha, scale of 0 to 10 where 0 is no effect and 10 is complete control
[2] = Preemergence, Rate 62 g/ha, scale 0 to 10 (0 no effect, 10 complete control)
[3] = Preemergence, Rate 125 g/ha, scale 0 to 10, 0 is no effect, 10 is complete control
[4] = Preemergence, Rate 500 g/ha, scale of 0 to 10 where 0 is no effect and 10 is complete control
[5] = Rate 250 g/ha, scale of 0 to 10 where 0 is no effect and 10 is complete control
[6] = Postemergence, Rate 62 g/ha, scale of 0 to 10, 0 is no effect, 10 is complete control
[7] = Postemergence, Rate 125 g/ha, scale 0 to 10, 0 is no effect, 10 is complete control
[8] = Postemergence, Rate 500 g/ha, scale of 0 to 10 where 0 is no effect and 10 is complete control
[9] = Rate 250 g/ha, Postemergence, scale of 0 to 10 where 0 is no effect and 10 is complete control

Compound: CC(Cl)=CCn1c(=O)on(C(=O)N(c2ccccc2)C(C)C)c1=O [Compound 573]
- Plant response rating, Wild oats (wild oat; [1]): 0
- Wild oats plant response rating (wild oat; [2]): 0
- Wild oats plant response rating (wild oat; [3]): 0
- Wild oats plant response rating (0 to 10 scale) (wild oat; Preemergence, Rate 250 g/ha): 0
- Wild oats plant response rating (wild oat; [4]): 0
- Plant response rating, Wild oats (wild oat; [5]): 0
- B. signalgrass plant response rating (surinam grass; [6]): 0
- B. signalgrass plant response rating (surinam grass; [7]): 0
- Plant response rating, B. signalgrass (surinam grass; [8]): 0
- B. signalgrass plant response rating (surinam grass; [2]): 7
- B. signalgrass plant response rating (surinam grass; [3]): 7
- B. signalgrass plant response rating (0 to 10 scale, 0 is no effect, 10 is complete control) (surinam grass; Preemergence, Rate 250 g/ha): 9
- B. signalgrass plant response rating (surinam grass; [4]): 10
- Plant response rating, B. signalgrass (surinam grass; [9]): 0
- Plant response rating, Wheat (wheat; [1]): 0
- Wheat plant response rating (wheat; [2]): 0
- Wheat plant response rating (wheat; [3]): 0
- Wheat plant response rating (0 to 10 scale) (wheat; Preemergence, Rate 250 g/ha): 0
- Wheat plant response rating (wheat; [4]): 0
- Plant response rating, Wheat (wheat; [5]): 0
- Morningglory plant response rating (morningglory; [6]): 10
- Morningglory plant response rating (morningglory; [7]): 10
- Plant response rating, Morningglory (morningglory; [8]): 10
- Morningglory plant response rating (morningglory; [2]): 0
- Morningglory plant response rating (morningglory; [3]): 0
- Morningglory plant response rating (0 to 10 scale) (morningglory; Preemergence, Rate 250 g/ha): 0
- Morningglory plant response rating (morningglory; [4]): 4
- Plant response rating, Morningglory (morningglory; [9]): 10
- Blackgrass plant response rating (blackgrass; [6]): 0
- Blackgrass plant response rating (blackgrass; [7]): 0
- Plant response rating, Blackgrass (blackgrass; [8]): 0
- Blackgrass plant response rating (blackgrass; [2]): 0
- Blackgrass plant response rating (blackgrass; [3]): 0
- Blackgrass plant response rating (0 to 10 scale) (blackgrass; Preemergence, Rate 250 g/ha): 2
- Blackgrass plant response rating (blackgrass; [4]): 6
- Plant response rating, Blackgrass (blackgrass; [9]): 0
- Bedstraw plant response rating (bedstraw; Rate 62 g/ha, scale 0 to 10 (0 no effect, 10 complete control)): 0
- Bedstraw plant response rating (bedstraw; Rate 125 g/ha, scale 0 to 10, 0 is no effect, 10 is complete control): 0
- Bedstraw plant response rating (0 to 10 scale) (bedstraw; Rate 250 g/ha): 0
- Bedstraw plant response rating (bedstraw; [1]): 0
- Plant response rating, Velvetleaf (velvetleaf; [1]): 2
- Velvetleaf plant response rating (velvetleaf; [2]): 0
- Velvetleaf plant response rating (velvetleaf; [3]): 0
- Velvetleaf plant response rating (0 to 10 scale) (velvetleaf; Preemergence, Rate 250 g/ha): 0
- Velvetleaf plant response rating (velvetleaf; [4]): 3
- Plant response rating, Velvetleaf (velvetleaf; [5]): 0
- Giant foxtail plant response rating (giant foxtail; [6]): 2
- Giant foxtail plant response rating (giant foxtail; [7]): 3
- Plant response rating, Giant foxtail (giant foxtail; [8]): 9
- Giant foxtail plant response rating (giant foxtail; [2]): 9
- Giant foxtail plant response rating (giant foxtail; [3]): 9
- Giant foxtail plant response rating (0 to 10 scale) (giant foxtail; Preemergence, Rate 250 g/ha): 9
- Giant foxtail plant response rating (giant foxtail; [4]): 10
- Plant response rating, Giant foxtail (giant foxtail; [9]): 9
- Plant response rating, Soybean (soybean; [1]): 6
- Soybean plant response rating (soybean; [2]): 0
- Soybean plant response rating (soybean; [3]): 0
- Soybean plant response rating (0 to 10 scale) (soybean; Preemergence, Rate 250 g/ha): 0
- Soybean plant response rating (soybean; [4]): 0
- Plant response rating, Soybean (soybean; [5]): 4
- Rape plant response rating (rape; [6]): 0
- Rape plant response rating (rape; [7]): 2
- Plant response rating, Rape (rape; [8]): 2
- Rape plant response rating (rape; [2]): 2
- Rape plant response rating (rape; [3]): 2
- Rape plant response rating (0 to 10 scale) (rape; Preemergence, Rate 250 g/ha): 3
- Rape plant response rating (rape; [4]): 3
- Plant response rating, Rape (rape; [9]): 3
- Cocklebur plant response rating (cocklebur; [6]): 0
- Cocklebur plant response rating (cocklebur; [7]): 0
- Plant response rating, Cocklebur (cocklebur; [8]): 3
- Cocklebur plant response rating (cocklebur; [2]): 0
- Cocklebur plant response rating (cocklebur; [3]): 0
- Cocklebur plant response rating (0 to 10 scale) (cocklebur; Preemergence, Rate 250 g/ha): 0
- Cocklebur plant response rating (cocklebur; [4]): 0
- Plant response rating, Cocklebur (cocklebur; [9]): 2
- Sugarbeets plant response rating (sugar beet; [2]): 0
- Sugarbeets plant response rating (sugar beet; [3]): 2
- Sugarbeets plant response rating (0 to 10 scale) (sugar beet; Preemergence, Rate 250 g/ha): 2
- Sugarbeets plant response rating (sugar beet; [4]): 2
- Plant response rating, Sugarbeets (sugar beet; [9]): 0
- Crabgrass plant response rating (crabgrass; [6]): 6
- Crabgrass plant response rating (crabgrass; [7]): 9
- Plant response rating, Crabgrass (crabgrass; [8]): 9
- Crabgrass plant response rating (crabgrass; [2]): 3
- Crabgrass plant response rating (crabgrass; [3]): 9
- Crabgrass plant response rating (0 to 10 scale) (crabgrass; Preemergence, Rate 250 g/ha): 9
- Crabgrass plant response rating (crabgrass; [4]): 10
- Plant response rating, Crabgrass (crabgrass; [9]): 9
- Corn plant response rating (corn; [6]): 0
- Corn plant response rating (corn; [7]): 0
- Plant response rating, Corn (corn; [8]): 0
- Corn plant response rating (corn; [2]): 0
- Corn plant response rating (corn; [3]): 0
- Corn plant response rating (0 to 10 scale) (corn; Preemergence, Rate 250 g/ha): 0
- Corn plant response rating (corn; [4]): 3
- Plant response rating, Corn (corn; [9]): 0
- Plant response rating, Redroot pigweed (pigweed; [1]): 7
- Redroot pigweed plant response rating (pigweed; [2]): 0
- Redroot pigweed plant response rating (pigweed; [3]): 0
- Redroot pigweed plant response rating (0 to 10 scale) (pigweed; Preemergence, Rate 250 g/ha): 9
- Redroot pigweed plant response rating (pigweed; [4]): 9
- Plant response rating, Redroot pigweed (pigweed; [5]): 4
- Nutsedge plant response rating (purple nutsedge; [6]): 0
- Nutsedge plant response rating (purple nutsedge; [7]): 0
- Nutsedge plant response rating (purple nutsedge; [2]): 0
- Nutsedge plant response rating (purple nutsedge; [3]): 0
- Nutsedge plant response rating (0 to 10 scale) (purple nutsedge; Preemergence, Rate 250 g/ha): 0
- Nutsedge plant response rating (purple nutsedge; [4]): 0
- Plant response rating, Nutsedge (purple nutsedge; [9]): 0
